Columns and labels:
Type in all cases: biochemical
[1] = target: T1, MMP-2 (Homo sapiens, UniProt P08253); assay: Automated MMP Profiling Assay, MMP-2 fluorogenic; conditions: for IC50: 96-well automated, P218, read-out: MMP-2 Fluorogenic IC50 (profiling)
T1 sequence (P08253 110-660): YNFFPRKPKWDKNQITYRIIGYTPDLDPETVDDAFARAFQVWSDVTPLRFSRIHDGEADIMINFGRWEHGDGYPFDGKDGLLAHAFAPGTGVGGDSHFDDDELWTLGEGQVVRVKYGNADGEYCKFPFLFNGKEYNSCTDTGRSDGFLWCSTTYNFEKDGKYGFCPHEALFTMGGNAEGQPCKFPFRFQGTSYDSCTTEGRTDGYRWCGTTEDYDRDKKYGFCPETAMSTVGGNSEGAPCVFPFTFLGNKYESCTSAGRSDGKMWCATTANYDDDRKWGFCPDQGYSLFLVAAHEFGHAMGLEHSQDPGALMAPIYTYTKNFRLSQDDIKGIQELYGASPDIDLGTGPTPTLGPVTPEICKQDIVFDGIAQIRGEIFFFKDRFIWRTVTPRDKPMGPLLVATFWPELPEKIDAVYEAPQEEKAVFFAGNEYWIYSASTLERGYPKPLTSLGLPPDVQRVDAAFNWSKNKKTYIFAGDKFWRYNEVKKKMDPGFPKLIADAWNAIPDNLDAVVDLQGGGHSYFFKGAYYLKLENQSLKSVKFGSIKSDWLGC

[2] = target: T2, MMP-9 (Homo sapiens, UniProt P14780); assay: Automated MMP Profiling Assay, MMP-9 fluorogenic; conditions: for IC50: 96-well automated, P218
T2 construct: from tissue; host or cells: human polymorphonuclear leukocytes (PMN) from whole blood (New York Blood Center), PMA-stimulated supernatant
T2 sequence (P14780 107-707 limits assumed): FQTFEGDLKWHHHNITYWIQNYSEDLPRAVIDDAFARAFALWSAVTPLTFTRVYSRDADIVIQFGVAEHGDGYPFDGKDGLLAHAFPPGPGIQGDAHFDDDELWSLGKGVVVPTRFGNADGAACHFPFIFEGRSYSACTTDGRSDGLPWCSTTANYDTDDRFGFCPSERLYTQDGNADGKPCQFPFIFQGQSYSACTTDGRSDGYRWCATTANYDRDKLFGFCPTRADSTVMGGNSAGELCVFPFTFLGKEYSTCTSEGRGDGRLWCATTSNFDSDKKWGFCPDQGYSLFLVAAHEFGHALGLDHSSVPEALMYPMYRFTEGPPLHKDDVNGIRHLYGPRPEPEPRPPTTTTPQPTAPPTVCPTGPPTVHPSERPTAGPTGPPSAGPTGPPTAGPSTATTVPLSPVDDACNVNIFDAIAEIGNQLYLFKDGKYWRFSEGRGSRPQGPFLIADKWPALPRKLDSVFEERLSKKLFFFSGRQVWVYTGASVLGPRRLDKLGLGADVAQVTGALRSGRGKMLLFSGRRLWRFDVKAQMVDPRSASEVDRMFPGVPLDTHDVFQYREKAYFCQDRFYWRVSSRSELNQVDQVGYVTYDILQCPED

[3] = target: T3, MMP-3 (Homo sapiens, UniProt P08254); assay: Automated MMP Profiling Assay, MMP-3 fluorogenic; conditions: for IC50: 96-well automated, P218
T3 construct: Truncated Prostromelysin-257 was expressed in a soluble form in E.coli; made in house; host or cells: E. coli
T3 sequence (P08254 100-274 limits assumed): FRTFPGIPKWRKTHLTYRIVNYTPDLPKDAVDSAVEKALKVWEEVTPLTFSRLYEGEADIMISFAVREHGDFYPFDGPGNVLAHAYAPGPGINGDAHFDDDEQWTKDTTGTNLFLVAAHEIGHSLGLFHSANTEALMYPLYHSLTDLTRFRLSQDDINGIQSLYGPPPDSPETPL
Text: This assay with each invention compound was run with the three enzymes MMP-3, MMP-9 and MMP-2 in parallel as adapted for a 96-well microtitre plate using a Hamilton A® workstation.

## O=C(CC(CCN1C(=O)c2ccncc2C1=O)C(=O)O)c1ccc(-c2ccc(Cl)cc2)cc1 (stereo not drawn) [Example 417, 2H-Pyrrolo[3,4-c]pyridine-2-butanoic acid, α-[2-(4'-chloro[1,1'-biphenyl]-4-yl)-2-oxoethyl]-1,3-dihydro-1,3-dioxo-]
[1]
  IC50: 0.0037 µM
[2]
  IC50: 0.012 µM
[3]
  IC50: 0.032 µM

## O=C(CC(CCN1C(=O)c2cccc3c(Br)ccc(c23)C1=O)C(=O)O)c1ccc(-c2ccc(Cl)cc2)cc1 (stereo not drawn) [Example 418]
[1]
  IC50: 0.42 µM
[2]
  IC50: 0.089 µM
[3]
  IC50: 0.305 µM

## O=C(CC(CCN1C(=O)c2cc3c(cc2C1=O)OCO3)C(=O)O)c1ccc(-c2ccc(Cl)cc2)cc1 (stereo not drawn) [Example 419, 6H-1,3-Dioxolo[4,5-.function.]isoindole-6-butanoic acid, α-[2-(4'-chloro[1,1'-biphenyl]-4-yl)-2-oxoethyl]-5,7-dihydro-5,7-dioxo-]
[1]
  IC50: 0.031 µM
[2]
  IC50: 0.00085 µM
[3]
  IC50: 0.0067 µM

## O=C(CC(CCN1C(=O)c2ccc(O)cc2C1=O)C(=O)O)c1ccc(-c2ccc(Cl)cc2)cc1 (stereo not drawn) [Example 420, 2H-Isoindole-2-butanoic acid, α-[2-(4'chloro[1,1'-biphenyl]-4-yl)-2-oxoethyl]-1,3-dihydro-5-hydroxy-1,3-dioxo-]
[1]
  IC50: 0.0051 µM
[2]
  IC50: 0.0017 µM
[3]
  IC50: 0.014 µM

## O=C(CC(CCN1C(=O)c2cccc(O)c2C1=O)C(=O)O)c1ccc(-c2ccc(Cl)cc2)cc1 (stereo not drawn) [Example 421, 2H-Isoindole-2-butanoic acid, α-[2-(4'chloro[1,1'-biphenyl]-4-yl)-2-oxoethyl]-1,3-dihydro-4-hydroxy-1,3-dioxo-]
[1]
  IC50: 0.00075 µM
[2]
  IC50: 0.0017 µM
[3]
  IC50: 0.012 µM

## COc1ccc2c(c1)C(=O)N(CCC(CC(=O)c1ccc(-c3ccc(Cl)cc3)cc1)C(=O)O)C2=O (stereo not drawn) [Example 422, 2H-Isoindole-2-butanoic acid, α-[2-(4'chloro[1,1'-biphenyl]-4-yl)-2-oxoethyl]-1,3-dihydro-5-methoxy-1,3-dioxo-]
[1]
  IC50: 0.014 µM
[2]
  IC50: 0.0016 µM
[3]
  IC50: 0.0084 µM

## COc1cccc2c1C(=O)N(CCC(CC(=O)c1ccc(-c3ccc(Cl)cc3)cc1)C(=O)O)C2=O (stereo not drawn) [Example 423, 2H-Isoindole-2-butanoic acid, α-[2-(4'chloro[1,1'-biphenyl]-4-yl)-2-oxoethyl]-1,3-dihydro-4-methoxy-1,3-dioxo-]
[1]
  IC50: 0.015 µM
[2]
  IC50: 0.0061 µM
[3]
  IC50: 0.019 µM

## CC(=O)Oc1ccc2c(c1)C(=O)N(CCC(CC(=O)c1ccc(-c3ccc(Cl)cc3)cc1)C(=O)O)C2=O (stereo not drawn) [Example 425, 2H-Isoindole-2-butanoic acid, 5-(acetyloxy)-α-[2-(4'-chloro[1,1'-biphenyl]-4-7l)2-oxoetyl]-1,3-dihydro-1,3-dioxo-]
[1]
  IC50: 0.014 µM
[2]
  IC50: 0.0012 µM
[3]
  IC50: 0.0038 µM

## O=C(CC(CCSc1ccccc1)C(=O)O)c1ccc(-c2ccc(Cl)cc2)cc1 (stereo not drawn) [Example 426, [1,1'-Biphenyl]-4-butanoic acid, 4'-chloro-γ-oxo-α-[2-(phenylthio)ethyl]-]
[1]
  IC50: 0.035 µM
[2]
  IC50: 0.417 µM
[3]
  IC50: 0.161 µM

## COc1ccc(CSCCC(CC(=O)c2ccc(-c3ccc(Cl)cc3)cc2)C(=O)O)cc1 (stereo not drawn) [Example 427, [1,1'-Biphenyl]-4-butanoic acid, 4'-chloro-α-[2-[[(4-methoxyphenyl)methyl]thio]ethyl]-γ-oxo-]
[1]
  IC50: 0.042 µM
[2]
  IC50: 0.362 µM
[3]
  IC50: 0.189 µM

## O=C(CC(CC[S+]([O-])c1ccccc1)C(=O)O)c1ccc(-c2ccc(Cl)cc2)cc1 (stereo not drawn) [Example 428, [1,1'-Biphenyl]-4-butanoic acid, 4'-chloro-γ-oxo-α-[2-(phenylsulfinyl)ethyl]-]
[1]
  IC50: 0.016 µM
[2]
  IC50: 0.119 µM
[3]
  IC50: 0.053 µM

## CCOc1ccc(-c2ccc(C(=O)CC(CCN3C(=O)c4cc5ccccc5cc4C3=O)C(=O)O)cc2)cc1 (stereo not drawn) [Example 429, 2H-Benz[.function.]isoindole-2-butanoic acid, α-[2-(4'-ethoxy[1,1'-biphenyl]-4-yl)-2-oxoethyl]-1,3-dihydro-1,3-dioxo-]
[1]
  IC50: 0.023 µM
[2]
  IC50: 0.0016 µM
[3]
  IC50: 0.023 µM

## CC(=O)NC(CC(=O)c1ccc(-c2ccc(Cl)cc2)cc1)C(=O)O (stereo not drawn) [Example 430, [1,1'-Biphenyl]-4-butanoic acid, α-(acetylamino)-4'-chloro-γ-oxo-]
[1]
  IC50: 0.419 µM
[2]
  inhibition at 5 µM: 37%
[3]
  inhibition at 5 µM: 28%

## O=C(CC(CCCCN1C(=O)c2ccccc2C1=O)C(=O)O)c1ccc(-c2ccc(Cl)cc2)cc1 (stereo not drawn) [Example 431, 2H-Isoindole-2-hexanoic acid, α[2-(4'-chloro[1,1'-biphenyl]-4-yl)-2-oxoethyl]-1,3-dihydro-1,3-dioxo-]
[1]
  IC50: 0.016 µM
[2]
  IC50: 0.05 µM
[3]
  IC50: 0.038 µM

## COC(=O)c1cccc(SCC(CC(=O)c2ccc(-c3ccc(Cl)cc3)cc2)C(=O)O)c1 (stereo not drawn) [Example 432, [1,1'-Biphenyl]-4-butanoic acid, 4'-chloro-α-[[[3-(methoxycarbonyl)phenyl]thio]methyl]-γ-oxo-]
[1]
  IC50: 0.236 µM
[2]
  IC50: > 1.25 µM
[3]
  IC50: 1.6 µM

## Cc1cccc(C)c1SCC(CC(=O)c1ccc(-c2ccc(Cl)cc2)cc1)C(=O)O (stereo not drawn) [Example 433, [1,1'-Biphenyl]-4-butanoic acid, 4'-chloro-α-[[(2,6-dimethylphenyl)thio]methyl]-γ-oxo-]
[1]
  IC50: 0.0062 µM
[2]
  IC50: 0.13 µM
[3]
  IC50: 0.103 µM

## COC(=O)c1cc(F)ccc1SCC(CC(=O)c1ccc(-c2ccc(Cl)cc2)cc1)C(=O)O (stereo not drawn) [Example 434, [1,1'-Biphenyl]-4-butanoic acid, 4'-chloro-α-[[[4-fluoro-2-(methoxycarbonyl)phenyl]thio]methyl]-γ-oxo-]
[1]
  IC50: 0.061 µM
[2]
  IC50: 1.14 µM
[3]
  IC50: 0.254 µM

## CCN(CC)C(=O)c1cccc(SCC(CC(=O)c2ccc(-c3ccc(Cl)cc3)cc2)C(=O)O)c1 (stereo not drawn) [Example 435, [1,1'-Biphenyl]-4-butanoic acid, 4'-chloro-α-[[[3-[(diethylamino)carbonyl]phenyl]thio]methyl]-γ-oxo-]
[1]
  IC50: 0.0081 µM
[2]
  IC50: 0.107 µM
[3]
  IC50: 0.039 µM

## CN(C)C(=O)c1ccccc1SCC(CC(=O)c1ccc(-c2ccc(Cl)cc2)cc1)C(=O)O (stereo not drawn) [Example 436, [1,1'-Biphenyl]-4-butanoic acid, 4'-chloro-α-[[[2-[(dimethylamino)carbony]phenyl]thio]methyl]-γ-oxo-]
[1]
  IC50: 0.286 µM
[2]
  IC50: 0.519 µM
[3]
  IC50: 0.158 µM

## CN(C)C(=O)c1cccc(SCC(CC(=O)c2ccc(-c3ccc(Cl)cc3)cc2)C(=O)O)c1 (stereo not drawn) [Example 437, [1,1'-Biphenyl]-4-butanoic acid, 4'-chloro-α-[[[3-[(dimethylamino)carbonyl]phenyl]thio]methyl]-γ-oxo-]
[1]
  IC50: 0.015 µM
[2]
  IC50: 0.366 µM
[3]
  IC50: 0.05 µM

## O=C(O)C1=CCCC1C(=O)c1ccc(-c2ccc(Cl)cc2)cc1 (stereo not drawn) [Example 439, 1-Cyclopentene-1-carboxylic acid, 5-[(4'-chloro[1,1'-biphenyl]-4-yl)carbonyl]-]
[1]; at 5 μM
  inhibition at 5 µM: 24%
[2]
  inhibition at 5 µM: 3%
[3]
  inhibition at 5 µM: 0%

## CCCCCOc1ccc(-c2ccc(C(=O)C3CCC=C3C(=O)O)cc2)cc1 (stereo not drawn) [Example 442, 1-Cyclopentene-1-carboxylic acid, 5-[[4'-(pentyloxy)[1,1'-biphenyl]-4-yl]carbonyl]-]
[1]
  IC50: 0.962 µM
[2]
  inhibition at 5 µM: 40%
[3]
  IC50: 2.76 µM
